Experimental data published in the NIST ThermoML archive (doi:10.1021/je040008e).

Key:
[1] = 101.33 kPa, Liquid; for speed of sound: Linear variable-path acoustic interferometer
[2] = xn = mol fraction of the nth substance listed; details: 308.15 K, 101.33 kPa, Liquid; for speed of sound: Linear variable-path acoustic interferometer

CC(=O)c1ccc(Cl)cc1 [4'-chloroacetophenone]
[1]
Details | mass density [kg/m3] | speed of sound [m/s]
298.15 K | 1188.9 | –
308.15 K | – | 1390

CC(=O)c1ccc(Cl)cc1 [4'-chloroacetophenone] + CNC(C)=O
[2]
Details | excess molar volume [m3/mol] | speed of sound [m/s]
x1 = 0.0644 | -2.11e-07 | 1363
x1 = 0.1311 | -3.3e-07 | 1366
x1 = 0.2036 | -4.53e-07 | 1369.3
x1 = 0.2825 | -5.363e-07 | 1372.4
x1 = 0.3696 | -5.889e-07 | 1375.8
x1 = 0.4664 | -5.934e-07 | 1379.5
x1 = 0.5774 | -5.393e-07 | 1382.6
x1 = 0.7003 | -4.298e-07 | 1385.1
x1 = 0.8405 | -2.52e-07 | 1387.6
x1 = 1 | 0 | 1390

CC(=O)c1ccc(C)cc1 [4'-methylacetophenone]
[1], 308.15 K
Details | mass density [kg/m3] | speed of sound [m/s]
– | 996.3 | 1437.9

CC(=O)c1ccc(C)cc1 [4'-methylacetophenone] + CNC(C)=O
[2]
Details | excess molar volume [m3/mol] | speed of sound [m/s]
x1 = 0.0617 | -1.519e-07 | 1368.9
x1 = 0.1321 | -2.517e-07 | 1377.7
x1 = 0.2004 | -3.355e-07 | 1385.8
x1 = 0.2836 | -3.41e-07 | 1394.4
x1 = 0.3629 | -3.52e-07 | 1402.4
x1 = 0.4632 | -3.458e-07 | 1411.5
x1 = 0.5582 | -3.114e-07 | 1418.4
x1 = 0.689 | -2.508e-07 | 1426.9
x1 = 0.8305 | -1.92e-07 | 1434
x1 = 1 | 0 | 1437.9

CNC(C)=O [N-methylacetamide]
[1], 308.15 K
Details | mass density [kg/m3] | speed of sound [m/s]
– | 949.7 | 1360

CNC(C)=O [N-methylacetamide] + CC(=O)c1ccc(C)cc1
[2], x2 = 0
Details | excess molar volume [m3/mol] | speed of sound [m/s]
– | 0 | 1360

CNC(C)=O [N-methylacetamide] + CC(=O)c1ccc(Cl)cc1
[2], x2 = 0
Details | excess molar volume [m3/mol] | speed of sound [m/s]
– | 0 | 1360

CNC(C)=O [N-methylacetamide] + CC(=O)c1ccccc1
[2]
Details | excess molar volume [m3/mol] | speed of sound [m/s]
x2 = 0 | 0 | 1360
x2 = 0.0686 | -1.018e-07 | 1368.7
x2 = 0.138 | -1.732e-07 | 1376.6
x2 = 0.2189 | -2.437e-07 | 1386.8
x2 = 0.3143 | -2.579e-07 | 1398
x2 = 0.3938 | -2.476e-07 | 1406.1
x2 = 0.4912 | -2.365e-07 | 1415.3
x2 = 0.6042 | -1.695e-07 | 1424.2
x2 = 0.7223 | -1.212e-07 | 1431.4
x2 = 0.8517 | -5.09e-08 | 1438

CNC(C)=O [N-methylacetamide] + CCC(=O)c1ccccc1
[2], x2 = 0
Details | excess molar volume [m3/mol] | speed of sound [m/s]
– | 0 | 1360

CC(=O)c1ccccc1 [acetophenone]
[1]
Details | mass density [kg/m3] | speed of sound [m/s]
298.15 K | 1023.1 | –
308.15 K | – | 1445

CC(=O)c1ccccc1 [acetophenone] + CNC(C)=O
[2], x1 = 1
Details | excess molar volume [m3/mol] | speed of sound [m/s]
– | 0 | 1445

CCC(=O)c1ccccc1 [ethyl phenyl ketone]
[1]
Details | mass density [kg/m3] | speed of sound [m/s]
298.15 K | 1009.2 | –
308.15 K | – | 1432.1

CCC(=O)c1ccccc1 [ethyl phenyl ketone] + CNC(C)=O
[2]
Details | excess molar volume [m3/mol] | speed of sound [m/s]
x1 = 0.06 | -2.003e-07 | 1368.3
x1 = 0.1269 | -3.185e-07 | 1374.7
x1 = 0.1862 | -3.356e-07 | 1380.6
x1 = 0.2778 | -2.912e-07 | 1388.9
x1 = 0.3654 | -2.106e-07 | 1397.8
x1 = 0.4649 | -1.397e-07 | 1406.6
x1 = 0.5709 | -8.14e-08 | 1413.5
x1 = 0.6929 | -1.92e-08 | 1419.6
x1 = 0.8315 | 3.82e-08 | 1426.6
x1 = 1 | 0 | 1432.1
